Test results: PubChem BioAssay AID248 (DTP/NCI, 2004)
Several values for one entry are separate records, joined by “and”; a condition that tells them apart may be missing. Equal entries are not always repeated. Inconclusive results and toxic doses are left out.

Tested on: L1210 leukemia ip in BDF1 mice, survival T/C
Test: NCI In Vivo Anticancer Drug Screen. Data for tumor model L1210 Leukemia (intraperitoneal) in B6D2F1 (BDF1) mice
Details: endpoint: mean survival time, higher = longer survival
How it was run: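 Ratio derived from survival: compound-dosed mice over vehicle-dosed mice, all bearing a transplantable tumor.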

[1] = dose: 100.0 mg/kg/injection, schedule: Q01DX001 (ip), vehicle: saline
[2] = dose: 100.0 mg/kg/injection, schedule: Q04DX003 (ip), vehicle: saline
[3] = dose: 200.0 mg/kg/injection, schedule: Q01DX001 (ip), vehicle: saline
[4] = dose: 200.0 mg/kg/injection, schedule: Q04DX003 (ip), vehicle: saline
[5] = dose: 400.0 mg/kg/injection, schedule: Q01DX001 (ip), vehicle: saline
[6] = dose: 400.0 mg/kg/injection, schedule: Q04DX003 (ip), vehicle: saline
[7] = dose: 100.0 mg/kg/injection, schedule: Q01DX009 (ip), vehicle: saline with Tween-80
[8] = dose: 100.0 mg/kg/injection, schedule: Q04DX003 (ip), vehicle: saline with Tween-80
[9] = dose: 200.0 mg/kg/injection, schedule: Q01DX009 (ip), vehicle: saline with Tween-80
[10] = dose: 200.0 mg/kg/injection, schedule: Q04DX003 (ip), vehicle: saline with Tween-80
[11] = dose: 400.0 mg/kg/injection, schedule: Q04DX003 (ip), vehicle: saline with Tween-80
[12] = dose: 100.0 mg/kg/injection, schedule: Q01DX009 (ip), vehicle: saline
[13] = dose: 200.0 mg/kg/injection, schedule: Q01DX009 (ip), vehicle: saline

COc1ccc(/C=C(\CC(=O)c2ccccc2)C(=O)Nc2ccccc2)cc1
T/C [1]: 93 % of control
T/C [2]: 109 % of control
T/C [3]: 96 % of control
T/C [4]: 98 % of control
T/C [5]: 103 % of control
T/C [6]: 95 % of control

Cc1ccc(S(=O)(=O)N/N=C2\CC3(Cl)CCC2C3)cc1 (stereo not drawn)
T/C [7]: 88 % of control
T/C [8]: 92 % of control
T/C [9]: 91 % of control
T/C [10]: 97 % of control
T/C [11]: 101 % of control

Nc1cc(C(=O)Nc2ccc(CCNC3=NCCN3)cc2)ccc1C(=O)Nc1ccc(CCNC2=NCCN2)cc1
T/C (dose: 0.26 mg/kg/injection, schedule: Q01DX001 (ip), vehicle: water): 103 % of control
T/C (dose: 0.4 mg/kg/injection, schedule: Q01DX001 (ip), vehicle: water): 101 % of control
T/C (dose: 0.6 mg/kg/injection, schedule: Q01DX001 (ip), vehicle: water): 103 % of control
T/C (dose: 0.93 mg/kg/injection, schedule: Q01DX001 (ip), vehicle: water): 101 % of control
T/C (dose: 0.93 mg/kg/injection, schedule: Q01DX015 (ip), vehicle: water): 101 % of control
T/C (dose: 1.87 mg/kg/injection, schedule: Q01DX015 (ip), vehicle: water): 119 % of control
T/C (dose: 3.75 mg/kg/injection, schedule: Q01DX015 (ip), vehicle: water): 156 % of control
T/C (dose: 4.8 mg/kg/injection, schedule: Q01DX Z (oral), vehicle: water): 109 % of control
T/C (dose: 7.5 mg/kg/injection, schedule: Q01DX015 (ip), vehicle: water): 216 % of control
T/C (dose: 7.5 mg/kg/injection, schedule: Q01DX Z (ip), vehicle: water): 265 % of control
T/C (dose: 7.5 mg/kg/injection, schedule: Q01DX Z (oral), vehicle: water): 113 % of control
T/C (dose: 11.0 mg/kg/injection, schedule: Q01DX Z (oral), vehicle: water): 111 % of control
T/C (dose: 15.0 mg/kg/injection, schedule: Q01DX015 (ip), vehicle: water): 97 % of control
T/C (dose: 16.0 mg/kg/injection, schedule: Q01DX Z (oral), vehicle: water): 104 % of control and 119 % of control
T/C (dose: 23.0 mg/kg/injection, schedule: Q01DX Z (oral), vehicle: water): 104 % of control
T/C (dose: 35.0 mg/kg/injection, schedule: Q01DX Z (oral), vehicle: water): 102 % of control
T/C (dose: 55.0 mg/kg/injection, schedule: Q01DX Z (oral), vehicle: water): 99 % of control and 115 % of control
T/C (dose: 85.0 mg/kg/injection, schedule: Q01DX Z (oral), vehicle: water): 114 % of control
T/C (dose: 125.0 mg/kg/injection, schedule: Q01DX Z (oral), vehicle: water): 118 % of control
T/C (dose: 190.0 mg/kg/injection, schedule: Q01DX Z (oral), vehicle: water): 104 % of control and 113 % of control

COc1ccc(/C(Cc2ccccc2)=N\N=C(N)N)cc1
T/C (dose: 15.0 mg/kg/injection, schedule: Q01DX Z (ip), vehicle: carboxymethylcellulose (CMC)): 97 % of control
T/C (dose: 30.0 mg/kg/injection, schedule: Q01DX Z (ip), vehicle: carboxymethylcellulose (CMC)): 97 % of control
T/C (dose: 60.0 mg/kg/injection, schedule: Q01DX Z (ip), vehicle: carboxymethylcellulose (CMC)): 97 % of control
T/C (dose: 120.0 mg/kg/injection, schedule: Q01DX Z (ip), vehicle: carboxymethylcellulose (CMC)): 101 % of control
T/C (dose: 240.0 mg/kg/injection, schedule: Q01DX Z (oral), vehicle: carboxymethylcellulose (CMC)): 108 % of control
T/C (dose: 480.0 mg/kg/injection, schedule: Q01DX Z (oral), vehicle: carboxymethylcellulose (CMC)): 104 % of control
T/C (dose: 960.0 mg/kg/injection, schedule: Q01DX Z (oral), vehicle: carboxymethylcellulose (CMC)): 88 % of control

O=c1[nH]c2ncccc2c(=O)n1OS(=O)(=O)c1ccccc1
T/C (dose: 50.0 mg/kg/injection, schedule: Q01DX001 (ip), vehicle: saline): 102 % of control
T/C (dose: 50.0 mg/kg/injection, schedule: Q01DX009 (ip), vehicle: saline): 98 % of control
T/C [1]: 96 % of control
T/C [12]: 106 % of control
T/C [3]: 93 % of control
T/C [13]: 98 % of control
T/C [5]: 96 % of control

CCCCOCC(O)CNCCN (stereo not drawn)
T/C (dose: 100.0 mg/kg/injection, schedule: Q04DX002 (ip), vehicle: saline): 108 % of control
T/C (dose: 200.0 mg/kg/injection, schedule: Q04DX002 (ip), vehicle: saline): 90 % of control
T/C (dose: 400.0 mg/kg/injection, schedule: Q04DX002 (ip), vehicle: saline): 104 % of control

CC1(C)/C(=C/c2ccccc2)C(=O)c2ccccc21
T/C [12]: 101 % of control
T/C [2]: 96 % of control
T/C [13]: 96 % of control
T/C [4]: 98 % of control
T/C (dose: 400.0 mg/kg/injection, schedule: Q01DX009 (ip), vehicle: saline): 102 % of control
T/C [6]: 102 % of control

CC(=O)OC1Cc2ccccc21 (stereo not drawn)
T/C [7]: 96 % of control
T/C [8]: 95 % of control
T/C [9]: 109 % of control
T/C [10]: 96 % of control
T/C (dose: 400.0 mg/kg/injection, schedule: Q01DX009 (ip), vehicle: saline with Tween-80): 100 % of control
T/C [11]: 98 % of control

O=C1c2ccccc2C(=O)N1c1ccc([N+](=O)[O-])cc1
T/C (dose: 100.0 mg/kg/injection, schedule: Q01DX001 (ip), vehicle: Klucel (hydroxypropylcellulose) (HPC)): 103 % of control
T/C (dose: 200.0 mg/kg/injection, schedule: Q01DX001 (ip), vehicle: Klucel (hydroxypropylcellulose) (HPC)): 97 % of control
T/C (dose: 400.0 mg/kg/injection, schedule: Q01DX001 (ip), vehicle: Klucel (hydroxypropylcellulose) (HPC)): 103 % of control
